According to paper PMC12040169 (PLOS Biology, 2025):

Assay: in vitro
Settings: human, hela cells, % viability

| SMILES | viability at 28.5 h, 10 µM [%] |
| --- | --- |
| Cc1nc2c(C)cccc2c(O)c1CN1CCCCCC1 [CBK264512] | 98.1 |
| O=C(C1=C(O)C(=O)N(Cc2cccnc2)C1c1ccncc1)c1ccc(Cl)cc1 (stereo not drawn) [CBK264513] | 94.8 |
| O=C(O)CC1S/C(=N/N=C/c2ccc(-c3cccc([N+](=O)[O-])c3)o2)NC1=O (stereo not drawn) [CBK264517] | 113 |
| Cc1n[nH]c(O)c1C(c1ccc(OC(=O)c2ccccc2Cl)cc1)c1c(C)n[nH]c1O [CBK264520] | 101 |
| CCOC(=O)CCc1nc2ccccc2nc1O [CBK264526] | 106 |
| CCc1cc2c(=O)c(-c3cnn(-c4ccccc4)c3)c(C(F)(F)F)oc2c(CN(C)C)c1O [CBK264530] | 90.9 |
| O=C(C1=C(O)C(=O)N(CCCN2CCOCC2)C1c1cccs1)c1cccs1 (stereo not drawn) [CBK264533] | 111 |
| Cc1ccc(S(=O)(=O)c2cccc(S(N)(=O)=O)c2)cc1S(N)(=O)=O [CBK264535] | 91.7 |
| CC1CCN(S(=O)(=O)c2ccc(NC(=O)c3ccc(Br)o3)cc2)CC1 [CBK264536] | 101 |
| CN(C)S(=O)(=O)c1ccc(C(=O)C2=C(O)C(=O)N(CCN3CCOCC3)C2c2ccccc2)cc1 (stereo not drawn) [CBK264540] | 111 |
| Cc1ccc(C)c(-c2nn(-c3ccccc3)cc2/C=C2\SC(=S)N(CC(=O)O)C2=O)c1 [CBK264541] | 98.4 |
| NS(=O)(=O)c1cc(C(=O)OCC(=O)c2ccccc2)c(Cl)cc1Cl [CBK264542] | 90.8 |
| c1cncc(-c2nnc(SCc3nc4ccccc4[nH]3)o2)c1 [CBK264543] | 98.1 |
| COc1ccccc1N(CC(O)Cn1nc(C)cc1C)S(=O)(=O)c1ccccc1 (stereo not drawn) [CBK264546] | 100 |
| O=C(C1=C(O)C(=O)N(Cc2cccnc2)C1c1cccnc1)c1cccs1 (stereo not drawn) [CBK264547] | 119 |
| COc1cccc(NC(=S)NCCCN2CCOCC2)c1 [CBK264548] | 123 |
| O=C(O)CCN1C(=O)C(O)=C(C(=O)c2ccc(Cl)cc2)C1c1ccccc1[N+](=O)[O-] (stereo not drawn) [CBK264553] | 98.8 |
| O=C(C1=C(O)C(=O)N(CCCN2CCOCC2)C1c1cccnc1)c1cccs1 (stereo not drawn) [CBK264555] | 113 |
| CN1CCc2c(sc3nc(SCc4cccc5ccccc45)n(-c4ccccc4)c(=O)c23)C1 [CBK264556] | 124 |
| O=C(Nc1ccccc1[N+](=O)[O-])c1cc(S(=O)(=O)NCc2ccco2)ccc1Cl [CBK264557] | 94.4 |
| CC1(C)NC(=O)N(CC(O)CN2CCCC2)C1=O (stereo not drawn) [CBK264558] | 96.3 |

| SMILES | viability at 28.5 h, 10 µM [%] |
| --- | --- |
| Cc1ccc(C2C(C(=O)c3cccs3)=C(O)C(=O)N2CCN2CCOCC2)o1 (stereo not drawn) [CBK264559] | 91.1 |
| O=C(NCCCO)c1ccc(/C=N/O)nc1 [CBK264560] | 97.7 |
| COc1ccc(OC(=O)c2cc(S(=O)(=O)N3CCCCCC3)ccc2Cl)cc1 [CBK264562] | 95.9 |
| CC1(C)CC(NCC(O)COc2cc(C(C)(C)C)c(O)c(C(C)(C)C)c2)CC(C)(C)N1 (stereo not drawn) [CBK264564] | 124 |
| CCOC(=O)c1c(NC(=O)CN2CC(C)OC(C)C2)sc2c1CCC(C)C2 (stereo not drawn) [CBK264572] | 107 |
| Cc1ccc(NC(=S)N2CCN(C/C=C/c3ccccc3)CC2)cc1 [CBK264574] | 98.9 |
| O=C(O)c1cc(S(=O)(=O)N2CCOCC2)c(Cl)cc1NC1CCCCC1 [CBK264576] | 97.8 |
| CCN(CC)S(=O)(=O)c1ccc(C)c(C(=O)Oc2cccc(-c3cnc4ccccc4n3)c2)c1 [CBK264577] | 85.8 |
| CC1(C)NC(=O)N(CC(O)CN(C2CCCCC2)C2CCCCC2)C1=O (stereo not drawn) [CBK264578] | 101 |
| CCOc1ccc(-n2c(SCc3nc4ccccc4[nH]3)nc3sc4c(c3c2=O)CCCC4)cc1 [CBK264581] | 103 |
| CC(NC(=O)/C(=C\c1ccc(Cl)cc1)NC(=O)c1ccccc1Br)C(=O)O (stereo not drawn) [CBK264582] | 91.4 |
| CN(C)CCN1C(=O)C(O)=C(C(=O)c2cccs2)C1c1ccc([N+](=O)[O-])cc1 (stereo not drawn) [CBK264584] | 92.6 |
| O=C(Nc1cccc2ccccc12)/C(=C\c1ccco1)NC(=O)c1ccc(Br)cc1 [CBK264587] | 104 |
| CN(C)CCCN1C(=O)C(O)=C(C(=O)c2ccc(Br)cc2)C1c1cccnc1 (stereo not drawn) [CBK264589] | 105 |
| O=C(C1=C(O)C(=O)N(CCCn2ccnc2)C1c1cccc([N+](=O)[O-])c1)c1cccs1 (stereo not drawn) [CBK264591] | 95.9 |
| O=C(CC1S/C(=N/N=C/c2ccc(-c3cc([N+](=O)[O-])ccc3Cl)o2)NC1=O)Nc1ccccc1 (stereo not drawn) [CBK264592] | 95.3 |
| Cc1ccc(C(=O)C2=C(O)C(=O)N(Cc3cccnc3)C2c2cccc([N+](=O)[O-])c2)cc1 (stereo not drawn) [CBK264593] | 89.3 |
| Cc1sc2nc(SCc3nc4ccccc4[nH]3)n(-c3ccc(Cl)c(Cl)c3)c(=O)c2c1C [CBK264594] | 102 |
| COc1c(Cl)ccc(Cl)c1C(=O)OCC(=O)O [CBK264596] | 115 |
| COc1ccc(C2=NN(c3ccc([N+](=O)[O-])cc3)C(=O)/C2=C/NCc2ccc3c(c2)OCO3)cc1 [CBK264598] | 84.1 |
| S=C(NCCCN1CCOCC1)Nc1ccccc1Cl [CBK264599] | 100 |

| SMILES | viability at 28.5 h, 10 µM [%] |
| --- | --- |
| O=C(C1=C(O)C(=O)N(CCCn2ccnc2)C1c1ccncc1)c1ccc(F)cc1 (stereo not drawn) [CBK264601] | 93.7 |
| O=C(CN(c1cc(C(F)(F)F)ccc1Cl)S(=O)(=O)c1ccccc1)NCc1cccnc1 [CBK264607] | 94.4 |
| C1=CC2CC1CC2CN1CCC(N(CCc2ccccc2)Cc2ccccc2)CC1 (stereo not drawn) [CBK264613G] | 87.7 |
| CCOc1cc(/C=C2\SC(=S)N(Cc3cccnc3)C2=O)ccc1OCc1cccc(F)c1 [CBK264615] | 112 |
| O=C(COc1ccccc1/C=C1/NC(=O)NC1=O)Nc1ccccc1 [CBK264620] | 99.3 |
| O=[N+]([O-])c1ccc(CN2CCC(N3CCN(CCO)CC3)CC2)cc1 [CBK264621G] | 92.6 |
| CN(Cc1ccccc1)C1CCN(Cc2ccccn2)CC1 [CBK264622G] | 107 |
| COc1cc(/C=C2\SC(=S)N(Cc3cccnc3)C2=O)ccc1OCc1cccc2ccccc12 [CBK264624] | 112 |
| CCOc1ccccc1NC(=O)CN(c1cc(C(F)(F)F)ccc1Cl)S(C)(=O)=O [CBK264627] | 84.7 |
| O=C(CN1C(=O)S/C(=C\c2ccccc2OCc2ccccc2)C1=O)c1ccc(Cl)cc1 [CBK264628] | 92.5 |
| Cc1cc(C)nc(SCc2nc3ccc([N+](=O)[O-])cc3[nH]2)n1 [CBK264634] | 85.3 |
| COc1ccc(C(=O)C2=C(O)C(=O)N(Cc3cccnc3)C2c2ccc(N(C)C)cc2)cc1 (stereo not drawn) [CBK264635] | 85.9 |
| O=C(O)c1ccc(COc2ccc(/C=C3\SC(=S)N(Cc4cccnc4)C3=O)cc2)cc1 [CBK264637] | 101 |
| O=S(=O)(NC1c2cccc3cccc(c23)C1Sc1ncccn1)c1ccc(Cl)cc1 (stereo not drawn) [CBK264638] | 94.3 |
| CC1CC(C)CN(C2CCN(Cc3ccccn3)CC2)C1 (stereo not drawn) [CBK264639G] | 99.4 |
| O=C(c1cc(-c2ccc(Cl)cc2)nc2ccccc12)n1nnc2ccccc21 [CBK264640] | 101 |
| O=C(CSc1nc2cccnc2[nH]1)Nc1cc(Cl)ccc1Cl [CBK264644] | 101 |
| COC(=O)c1ccc(NC(=O)CC2Sc3ccc(C(F)(F)F)cc3NC2=O)cc1 (stereo not drawn) [CBK264645] | 110 |
| O=C(C(Cc1ccccc1)N1C(=O)C2CCCCC2C1=O)N1CCN(Cc2ccc3c(c2)OCO3)CC1 (stereo not drawn) [CBK264648] | 102 |
| CCOc1ccc(C(=O)C2=C(O)C(=O)N(CCN3CCOCC3)C2c2ccc(N(C)C)cc2)c(C)c1 (stereo not drawn) [CBK264650] | 92.7 |
| Cc1cccc(OCc2nnc(SCC(=O)NC3CCCCC3)o2)c1 [CBK264652] | 96.3 |

| SMILES | viability at 28.5 h, 10 µM [%] |
| --- | --- |
| CC(=O)Nc1ccc(S(=O)(=O)N2CCC(N3CCOCC3)CC2)cc1 [CBK264653G] | 116 |
| CCN(Cc1ccccc1)C1CCN(Cc2cccc(OC)c2)CC1 [CBK264654G] | 99.2 |
| COc1cc(CN2CCC(N3CCN(c4ccccc4)CC3)CC2)ccc1OCc1ccccc1 [CBK264655G] | 95.6 |
| Cc1ccc(S(=O)(=O)N2CCC(N3CCN(CCO)CC3)CC2)cc1 [CBK264656G] | 96.8 |
| COc1ccc(C(=O)C2=C(O)C(=O)N(Cc3cccnc3)C2c2cccc([N+](=O)[O-])c2)cc1 (stereo not drawn) [CBK264661] | 99.5 |
| CN(C)CC(=O)Nc1ccc(Br)cc1C(=O)c1ccccc1Cl [CBK264663F] | 91.4 |
| O=C(CN(Cc1ccccc1)S(=O)(=O)c1cc(Cl)ccc1Cl)Nc1cccc(F)c1 [CBK264664] | 89.3 |
| CN(C)S(=O)(=O)c1ccc(C(=O)C2=C(O)C(=O)N(Cc3cccnc3)C2c2ccccc2)cc1 (stereo not drawn) [CBK264667] | 100 |
| CN(C)CCN1C(=O)C(O)=C(C(=O)c2ccc(S(=O)(=O)N3CCOCC3)cc2)C1c1ccccc1 (stereo not drawn) [CBK264668] | 100 |
| CC(Sc1ccc(Cl)cc1)C(=O)Nc1ccc(CSc2ccccc2)cc1 (stereo not drawn) [CBK264670] | 93.2 |
| O=C(O)c1ccc(COc2ccc(/C=C3\SC(=S)N(Cc4cccnc4)C3=O)cc2Cl)cc1 [CBK264672] | 91.9 |
| O=C1/C(=C/c2ccc3c(c2)OCO3)SC(=S)N1CCCC(=O)N1CCCc2ccccc21 [CBK264676] | 98.2 |
| O=C(NC(Cc1ccccc1)C(=O)O)c1ccc(Cl)cc1 (stereo not drawn) [CBK264677] | 96.1 |
| CC1=NN(c2ccc(S(N)(=O)=O)cc2)C(=O)/C1=C/c1ccc(-c2ccc3c(c2)COC3=O)o1 [CBK264678] | 95.6 |
| CN(C)CCN1C(=O)C(O)=C(C(=O)c2ccc(S(=O)(=O)N3CCOCC3)cc2)C1c1ccc(F)cc1 (stereo not drawn) [CBK264683] | 104 |
| c1ccc(N2CCN(C3CCN(Cc4ccccn4)CC3)CC2)cc1 [CBK264684G] | 110 |
| Cc1nc(N2CCOCC2)nc(Nc2ccc(Cl)cc2)c1[N+](=O)[O-] [CBK264685] | 87.5 |
| Clc1cccc(CN2CCC(N3CCN(c4ccccc4)CC3)CC2)c1 [CBK264690G] | 98.7 |
